Measured values reported in patent publication US9688676B2, “Tyrosine kinase inhibitors” (PRINCIPIA BIOPHARMA INC., priority 2015, dated 2017).

Target: BTK (Homo sapiens (Human), UniProt Q06187)
Experiment: BTK enzymatic activity assay (Caliper-based kinase assay)
Assay type: biochemical
Settings: human recombinant BTK 0.5 nM, ATP 16 μM, 3 h room temperature
Method: A Caliper-based kinase assay (Caliper Life Sciences, Hopkinton, Mass.) was used to measure inhibition of BTK kinase activity of a compound of the present disclosure. […] The reaction was then terminated with EDTA, final concentration 20 mM and the phosphorylated reaction product was quantified on a Caliper Desktop Profiler (Caliper LabChip 3000). […] This value is presented as the IC50.

BTK, sequence (Q06187 whole entry): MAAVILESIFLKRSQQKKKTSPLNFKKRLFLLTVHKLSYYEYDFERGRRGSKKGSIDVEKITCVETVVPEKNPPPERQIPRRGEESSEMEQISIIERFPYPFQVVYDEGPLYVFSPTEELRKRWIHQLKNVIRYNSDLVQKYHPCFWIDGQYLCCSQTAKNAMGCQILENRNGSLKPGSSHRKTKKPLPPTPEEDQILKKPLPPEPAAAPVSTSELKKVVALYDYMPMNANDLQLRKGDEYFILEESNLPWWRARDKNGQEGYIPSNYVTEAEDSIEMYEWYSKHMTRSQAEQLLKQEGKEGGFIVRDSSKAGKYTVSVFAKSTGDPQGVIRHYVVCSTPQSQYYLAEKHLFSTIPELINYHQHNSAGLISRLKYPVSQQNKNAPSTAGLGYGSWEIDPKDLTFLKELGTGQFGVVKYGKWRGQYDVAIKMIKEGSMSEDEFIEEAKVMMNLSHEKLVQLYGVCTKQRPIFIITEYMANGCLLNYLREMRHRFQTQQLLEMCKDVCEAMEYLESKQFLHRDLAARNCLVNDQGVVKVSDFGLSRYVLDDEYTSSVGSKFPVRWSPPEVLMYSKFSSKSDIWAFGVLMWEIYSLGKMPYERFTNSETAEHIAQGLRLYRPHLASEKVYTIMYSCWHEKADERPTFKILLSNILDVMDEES

IC50 [nM] | SMILES
78.6 | N#CC(=CC(CCO)CCO)C(=O)N1CCC[C@@H](n2c(=O)n(-c3ccc(Oc4ccccc4)cc3)c3c(N)nccc32)C1 [Compound 11, (R)-2-(3-(4-amino-2-oxo-3-(4-phenoxyphenyl)-2,3-dihydro-1H-imidazo[4,5-c]pyridin-1-yl)piperidine-1-carbonyl)-6-hydroxy-4-(2-hydroxyethyl)hex-2-enenitrile]
7.8 | C[C@@H]1CN(C(C)(C)C=C(C#N)C(=O)N2CCC[C@@H](n3c(=O)n(-c4ccc(Oc5ccccc5)cc4)c4c(N)nccc43)C2)C[C@H](C)N1 [Compound 19, 2-((R)-3-(4-amino-2-oxo-3-(4-phenoxyphenyl)-2,3-dihydro-1H-imidazo[4,5-c]pyridin-1-yl)piperidine-1-carbonyl)-4-((3R,5S)-3,5-dimethylpiperazin-1-yl)-4-methylpent-2-enenitrile]
14.5 | N#CC(=CC1CCSCC1)C(=O)N1CCC[C@@H](n2c(=O)n(-c3ccc(Oc4ccccc4)cc3)c3c(N)nccc32)C1 [Compound 20, (R)-2-(3-(4-amino-2-oxo-3-(4-phenoxyphenyl)-2,3-dihydro-1H-imidazo[4,5-c]pyridin-1-yl)piperidine-1-carbonyl)-3-(tetrahydro-2H-thiopyran-4-yl)acrylonitrile]
4.6 | CC(C)(C=C(C#N)C(=O)N1CCC[C@@H](n2c(=O)n(-c3ccc(Oc4ccccc4)cc3)c3c(N)nccc32)C1)N1CCNC(=O)C1 [Compound 21, (R)-2-(3-(4-amino-2-oxo-3-(4-phenoxyphenyl)-2,3-dihydro-1H-imidazo[4,5-c]pyridin-1-yl)piperidine-1-carbonyl)-4-methyl-4-(3-oxopiperazin-1-yl)pent-2-enenitrile]
4.8 | C=CC(=O)N1CCC[C@H]1Cn1c(=O)n(-c2ccc(Oc3ccccc3)cc2)c2c(N)nccc21 [Compound 22, (S)-1-((1-acryloylpyrrolidin-2-yl)methyl)-4-amino-3-(4-phenoxyphenyl)-1H-imidazo[4,5-c]pyridin-2(3H)-one]
25.9 | CC#CC(=O)N1CCC[C@H]1Cn1c(=O)n(-c2ccc(Oc3ccccc3)cc2)c2c(N)nccc21 [Compound 23, (S)-4-amino-1-((1-(but-2-ynoyl)pyrrolidin-2-yl)methyl)-3-(4-phenoxyphenyl)-1H-imidazo[4,5-c]pyridin-2(3H)-one]
4.7 | CC(C)(C=C(C#N)C(=O)N1CCC[C@@H](n2c(=O)n(-c3ccc(Oc4c(F)cccc4F)cc3)c3c(N)nccc32)C1)N1CCN(C2COC2)CC1 [Compound 24, (R)-2-(3-(4-amino-3-(4-(2,6-difluorophenoxy)phenyl)-2-oxo-2,3-dihydro-1H-imidazo[4,5-c]pyridin-1-yl)piperidine-1-carbonyl)-4-methyl-4-(4-(oxetan-3-yl)piperazin-1-yl)pent-2-enenitrile]
5.4 | CC(C)(C=C(C#N)C(=O)N1CCC[C@@H](n2c(=O)n(-c3ccc(Oc4cccc(F)c4F)cc3)c3c(N)nccc32)C1)N1CCN(C2COC2)CC1 [Compound 25, (R)-2-(3-(4-amino-3-(4-(2,3-difluorophenoxy)phenyl)-2-oxo-2,3-dihydro-1H-imidazo[4,5-c]pyridin-1-yl)piperidine-1-carbonyl)-4-methyl-4-(4-(oxetan-3-yl)piperazin-1-yl)pent-2-enenitrile]
3.5 | CC(C)(C=C(C#N)C(=O)N1CCC[C@@H](n2c(=O)n(-c3ccc(Oc4ccccc4)c(F)c3)c3c(N)nccc32)C1)N1CCN(C2COC2)CC1 [Compound 26, (R)-2-(3-(4-amino-3-(3-fluoro-4-phenoxyphenyl)-2-oxo-2,3-dihydro-1H-imidazo[4,5-c]pyridin-1-yl)piperidine-1-carbonyl)-4-methyl-4-(4-(oxetan-3-yl)piperazin-1-yl)pent-2-enenitrile]
4.9 | CC(C)(C=C(C#N)C(=O)N1CCC[C@@H](n2c(=O)n(-c3ccc(Oc4ccccc4)cc3F)c3c(N)nccc32)C1)N1CCN(C2COC2)CC1 [Compound 27, (R)-2-(3-(4-amino-3-(2-fluoro-4-phenoxyphenyl)-2-oxo-2,3-dihydro-1H-imidazo[4,5-c]pyridin-1-yl)piperidine-1-carbonyl)-4-methyl-4-(4-(oxetan-3-yl)piperazin-1-yl)pent-2-enenitrile]
4.8 | Cc1cc(-n2c(=O)n([C@@H]3CCCN(C(=O)C(C#N)=CC(C)(C)N4CCN(C5COC5)CC4)C3)c3ccnc(N)c32)ccc1Oc1ccccc1 [Compound 28, (R)-2-(3-(4-amino-3-(3-methyl-4-phenoxyphenyl)-2-oxo-2,3-dihydro-1H-imidazo[4,5-c]pyridin-1-yl)piperidine-1-carbonyl)-4-methyl-4-(4-(oxetan-3-yl)piperazin-1-yl)pent-2-enenitrile]
1.8 | CC(C)(C=C(C#N)C(=O)N1CCC[C@@H](n2c(=O)n(-c3ccc(Oc4ccccc4)cc3)c3c(N)nccc32)C1)N1CCn2cnnc2C1 [Compound 29, (R)-2-(3-(4-amino-2-oxo-3-(4-phenoxyphenyl)-2,3-dihydro-1H-imidazo[4,5-c]pyridin-1-yl)piperidine-1-carbonyl)-4-(5,6-dihydro-[1,2,4]triazolo[4,3-a]pyrazin-7(8H)-yl)-4-methylpent-2-enenitrile]
1.5 | CC(C)(C=C(C#N)C(=O)N1CCC[C@@H](n2c(=O)n(-c3ccc(Oc4ccccc4)cc3)c3c(N)nccc32)C1)N1CCN(C2(C)COC2)CC1 [Compound 30, (R)-2-(3-(4-amino-2-oxo-3-(4-phenoxyphenyl)-2,3-dihydro-1H-imidazo[4,5-c]pyridin-1-yl)piperidine-1-carbonyl)-4-methyl-4-(4-(3-methyloxetan-3-yl)piperazin-1-yl)pent-2-enenitrile]
3.7 | CC(C)(C=C(C#N)C(=O)N1CCC[C@@H](n2c(=O)n(-c3ccc(Oc4ccccc4)cc3)c3c(N)ncnc32)C1)N1CCN(C2COC2)CC1 [Compound 31, (R)-2-(3-(6-amino-8-oxo-7-(4-phenoxyphenyl)-7H-purin-9(8H)-yl)piperidine-1-carbonyl)-4-methyl-4-(4-(oxetan-3-yl)piperazin-1-yl)pent-2-enenitrile]
2.9 | CC1(C=C(C#N)C(=O)N2CCC[C@@H](n3c(=O)n(-c4ccc(Oc5ccccc5)cc4)c4c(N)ncnc43)C2)CCN(C2COC2)CC1 [Compound 32, (R)-2-(3-(6-amino-8-oxo-7-(4-phenoxyphenyl)-7H-purin-9(8H)-yl)piperidine-1-carbonyl)-3-(4-methyl-1-(oxetan-3-yl)piperidin-4-yl)acrylonitrile]
23.1 | CN1CCN(C(C)(C)C=C(C#N)C(=O)N2CCC[C@H]2Cn2c(=O)n(-c3ccc(Oc4ccccc4)cc3)c3c(N)nccc32)CC1 [Compound 34, (S)-2-(2-((4-amino-2-oxo-3-(4-phenoxyphenyl)-2,3-dihydro-1H-imidazo[4,5-c]pyridin-1-yl)methyl)pyrrolidine-1-carbonyl)-4-methyl-4-(4-methylpiperazin-1-yl)pent-2-enenitrile]
26.2 | CN1CCN(C(C)(C)C=C(C#N)C(=O)N2CCC[C@H]2Cn2c(=O)n(-c3ccc(Oc4ccccc4)cc3)c3c(N)nccc32)CC1=O [Compound 35, (S)-2-(2-((4-amino-2-oxo-3-(4-phenoxyphenyl)-2,3-dihydro-1H-imidazo[4,5-c]pyridin-1-yl)methyl)pyrrolidine-1-carbonyl)-4-methyl-4-(4-methyl-3-oxopiperazin-1-yl)pent-2-enenitrile]
15.7 | CN(C1COC1)C(C)(C)C=C(C#N)C(=O)N1CCC[C@H]1Cn1c(=O)n(-c2ccc(Oc3ccccc3)cc2)c2c(N)nccc21 [Compound 36, (S)-2-(2-((4-amino-2-oxo-3-(4-phenoxyphenyl)-2,3-dihydro-1H-imidazo[4,5-c]pyridin-1-yl)methyl)pyrrolidine-1-carbonyl)-4-methyl-4-(methyl(oxetan-3-yl)amino)pent-2-enenitrile]
4.3 | CC1(C=C(C#N)C(=O)N2CCC[C@@H](n3c(=O)n(-c4ccc(Oc5ccccc5)cc4)c4c(N)nccc43)C2)CCOCC1 [Compound 37, (R)-2-(3-(4-amino-2-oxo-3-(4-phenoxyphenyl)-2,3-dihydro-1H-imidazo[4,5-c]pyridin-1-yl)piperidine-1-carbonyl)-3-(4-methyltetrahydro-2H-pyran-4-yl)acrylonitrile]
5.7 | CC(C)(C=C(C#N)C(=O)N1CCC[C@@H](n2c(=O)n(-c3ccc(Oc4ccccc4F)cc3)c3c(N)nccc32)C1)N1CCN(C2COC2)CC1 [Compound 38, (R)-2-(3-(4-amino-3-(4-(2-fluorophenoxy)phenyl)-2-oxo-2,3-dihydro-1H-imidazo[4,5-c]pyridin-1-yl)piperidine-1-carbonyl)-4-methyl-4-(4-(oxetan-3-yl)piperazin-1-yl)pent-2-enenitrile]
5.3 | N#CC(=CC1CC[S+]([O-])CC1)C(=O)N1CCC[C@@H](n2c(=O)n(-c3ccc(Oc4ccccc4)cc3)c3c(N)nccc32)C1 (stereo partly drawn) [Compound 39, (R)-2-(3-(4-amino-2-oxo-3-(4-phenoxyphenyl)-2,3-dihydro-1H-imidazo[4,5-c]pyridin-1-yl)piperidine-1-carbonyl)-3-(1-oxidotetrahydro-2H-thiopyran-4-yl)acrylonitrile]
5.7 | CCN1CCN(C(C)(C)C=C(C#N)C(=O)N2CCC[C@@H](n3c(=O)n(-c4ccc(Oc5ccccc5)cc4)c4c(N)nccc43)C2)CC1=O [Compound 40, (R)-2-(3-(4-amino-2-oxo-3-(4-phenoxyphenyl)-2,3-dihydro-1H-imidazo[4,5-c]pyridin-1-yl)piperidine-1-carbonyl)-4-(4-ethyl-3-oxopiperazin-1-yl)-4-methylpent-2-enenitrile]
3.1 | N#CC(=CC1CC1)C(=O)N1CCC[C@@H](n2c(=O)n(-c3ccc(Oc4ccccc4)cc3)c3c(N)nccc32)C1 [Compound 41, (R)-2-(3-(4-amino-2-oxo-3-(4-phenoxyphenyl)-2,3-dihydro-1H-imidazo[4,5-c]pyridin-1-yl)piperidine-1-carbonyl)-3-cyclopropylacrylonitrile]
